The target in the test is post-Amadori AGE formation (RNase Amadori). As to the kind of experiment: Post-Amadori inhibitory activity: inhibition of AGE formation from RNase Amadori, detected by ELISA (BST-3CK antibody, DELFIA Europium). The format is biochemical. To be noted: for potency at inhibiting post-Amadori AGE formation compared to PM: comparison with pyridoxamine (PM). As for the experimental part:
This example illustrates the activity of the dimer and trimer for inhibiting post-Amadori AGE formation compared to pyridoxamine.
All reactions were done in duplicate All compound stocks were 100 mM in DMSO. All reactions were carried out for 20 hours in 10% DMSO and 0.18 M Phosphate pH 7.4 Reaction volumes were 50 μl. Compound dilutions were first done in 100% DMSO Add to each well: • 20 μl of 0.2 M Phosphate • then 5 μl of compound dilution in 100% DMSO mix • Add 25 μl of 0.2 mg/ml RNase Amadori produced for a final protein concentration in the reaction of 0.1 mg/ml. • After 20 hours the reaction wells were diluted with coating buffer 5 to 50 then 4 to 50 to give a final concentration of 0.8 μg/ml or 40 ng/well. • Coat for two hours • Block one hour • 1 hour with primary antibody BST-3CK @ 1:10,000 • 1 hour with secondary antibody DELFIA Europium GAR @ 0.25 μg/ml (secondary antibody stock is at 660 μg/ml so diluted about 1:2500).
Compounds were tested over the range of concentrations 1000 to 1 μM.
A general note: An ELISA detects its analyte on a solid surface through an enzyme-linked reagent.

[1] abbreviates: 20 hours, 10% DMSO, 0.18 M Phosphate pH 7.4, 0.1 mg/ml RNase Amadori, tested 1000 to 1 μM, duplicate.

By IC50 is commonly meant the midpoint of a concentration-inhibition curve. A higher IC50 goes with weaker potency. Take `Cc1ncc(CO)c(Cc2nc(C)c(O)c(Cc3nc(C)c(O)c(CN)c3CO)c2CO)c1O` [Trimer XX]: the “potency at inhibiting post-Amadori AGE formation compared to PM” value is reported as “more potent than PM”. This compound returned an IC50 under setting [1] of 400 µM.
Consider `Cc1ncc(CO)c(CN)c1O` [Sigma PM, 4-aminomethyl-3-hydroxy-5-hydroxymethyl-2-methylpyridine, reference compound], for which, for the setting “from previous experiments”, the IC50 amounted to 7000 µM.
On to `Cc1ncc(CO)c(Cc2nc(C)c(O)c(CN)c2CO)c1O` [Dimer X], for which the “potency at inhibiting post-Amadori AGE formation compared to PM” value is recorded as “more potent than PM”. Moreover, the 50% inhibitory concentration (IC50) under setting [1] came to 1000 µM.

The values are drawn from US8431712B2, “Methods for the synthesis of pyridoxamine” (NephroGenex, Inc., priority 2004, dated 2013).
